Data reported in ChEMBL document CHEMBL1134096, “Discovery and characterization of the potent, selective and orally bioavailable MMP inhibitor ABT-770” (Bioorg Med Chem Lett, 2001).
Values joined by “and” are separate entries in the source; they are usually repeats but may differ in a detail not shown here. Equal entries are not always repeated.

Tests used:
Interstitial collagenase = biological target: T1, Interstitial collagenase (Homo sapiens, UniProt P03956); test: In vitro inhibition of human Matrix metalloprotease-1.
T1 sequence (P03956 whole entry): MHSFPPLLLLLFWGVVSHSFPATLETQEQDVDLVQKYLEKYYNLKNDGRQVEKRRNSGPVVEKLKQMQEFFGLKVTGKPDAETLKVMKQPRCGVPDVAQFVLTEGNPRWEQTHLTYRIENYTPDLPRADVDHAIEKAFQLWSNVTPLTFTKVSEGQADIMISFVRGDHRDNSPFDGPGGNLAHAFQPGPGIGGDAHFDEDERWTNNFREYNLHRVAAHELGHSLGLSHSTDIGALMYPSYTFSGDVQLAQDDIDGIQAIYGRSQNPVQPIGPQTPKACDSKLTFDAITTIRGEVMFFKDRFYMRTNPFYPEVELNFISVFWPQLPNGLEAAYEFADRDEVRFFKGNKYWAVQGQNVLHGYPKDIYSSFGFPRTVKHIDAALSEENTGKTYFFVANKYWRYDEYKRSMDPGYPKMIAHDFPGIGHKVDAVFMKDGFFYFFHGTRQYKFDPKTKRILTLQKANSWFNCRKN

[1] = biological target: 72 kDa type IV collagenase (Homo sapiens, UniProt P08253); test: In vitro inhibition of human Matrix metalloprotease-2.
Chain of 72 kDa type IV collagenase (P08253 whole entry): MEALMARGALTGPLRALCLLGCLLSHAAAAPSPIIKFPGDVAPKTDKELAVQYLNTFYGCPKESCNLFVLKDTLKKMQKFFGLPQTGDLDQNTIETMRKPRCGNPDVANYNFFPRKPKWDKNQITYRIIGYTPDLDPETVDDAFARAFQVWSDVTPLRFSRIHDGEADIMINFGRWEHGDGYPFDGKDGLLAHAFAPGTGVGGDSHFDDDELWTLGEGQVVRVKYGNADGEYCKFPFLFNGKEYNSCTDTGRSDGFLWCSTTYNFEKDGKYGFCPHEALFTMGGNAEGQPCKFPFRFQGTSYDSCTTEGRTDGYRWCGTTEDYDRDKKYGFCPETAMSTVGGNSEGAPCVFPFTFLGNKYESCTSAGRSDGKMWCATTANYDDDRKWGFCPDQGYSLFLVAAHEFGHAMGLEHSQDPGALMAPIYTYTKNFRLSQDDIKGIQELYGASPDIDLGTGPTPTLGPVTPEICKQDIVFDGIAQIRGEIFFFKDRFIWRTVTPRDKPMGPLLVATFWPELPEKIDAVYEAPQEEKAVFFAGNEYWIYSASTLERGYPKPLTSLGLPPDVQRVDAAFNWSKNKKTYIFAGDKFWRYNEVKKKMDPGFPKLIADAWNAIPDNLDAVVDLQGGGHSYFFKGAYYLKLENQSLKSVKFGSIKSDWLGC

[2] = Half-life was determined in monkey after 3 mg/kg of i.v. dose; assay type: ADME, organism-based; set-up: dose 3 mg/kg, route intravenous; details: cercopithecidae, in vivo, iv
Matrilysin = biological target: T2, Matrilysin (Homo sapiens, UniProt P09237); test: Inhibition of Matrix metalloprotease-7
T2 sequence (P09237 whole entry): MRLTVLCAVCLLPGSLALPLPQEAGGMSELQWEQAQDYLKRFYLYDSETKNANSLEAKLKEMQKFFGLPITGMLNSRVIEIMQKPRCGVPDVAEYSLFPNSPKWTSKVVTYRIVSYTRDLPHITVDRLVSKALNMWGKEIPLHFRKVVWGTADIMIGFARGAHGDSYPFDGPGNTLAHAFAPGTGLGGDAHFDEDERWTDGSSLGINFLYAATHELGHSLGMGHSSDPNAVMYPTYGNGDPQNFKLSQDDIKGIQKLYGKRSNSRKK

Stromelysin-1 = Stromelysin-1 (Homo sapiens, UniProt P08254); test: Inhibition of Matrix metalloprotease-3
Chain of Stromelysin-1 (P08254 whole entry): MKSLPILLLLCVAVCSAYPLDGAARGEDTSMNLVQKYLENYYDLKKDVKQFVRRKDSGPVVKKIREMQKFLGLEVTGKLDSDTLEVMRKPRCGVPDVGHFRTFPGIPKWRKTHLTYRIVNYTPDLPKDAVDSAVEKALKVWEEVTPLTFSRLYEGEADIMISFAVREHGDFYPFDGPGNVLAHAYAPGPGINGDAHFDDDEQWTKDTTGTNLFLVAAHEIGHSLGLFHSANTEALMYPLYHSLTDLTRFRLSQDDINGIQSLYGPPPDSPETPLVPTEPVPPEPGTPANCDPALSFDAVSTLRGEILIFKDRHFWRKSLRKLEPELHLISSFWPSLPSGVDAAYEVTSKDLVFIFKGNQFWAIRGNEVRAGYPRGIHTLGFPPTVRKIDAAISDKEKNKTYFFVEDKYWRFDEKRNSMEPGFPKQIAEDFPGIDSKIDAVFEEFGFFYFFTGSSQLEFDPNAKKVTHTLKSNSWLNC

[3] = biological target: Matrix metalloproteinase-9 (Homo sapiens, UniProt P14780); test: Inhibition of matrix metalloprotease-9
Chain of Matrix metalloproteinase-9 (P14780 whole entry): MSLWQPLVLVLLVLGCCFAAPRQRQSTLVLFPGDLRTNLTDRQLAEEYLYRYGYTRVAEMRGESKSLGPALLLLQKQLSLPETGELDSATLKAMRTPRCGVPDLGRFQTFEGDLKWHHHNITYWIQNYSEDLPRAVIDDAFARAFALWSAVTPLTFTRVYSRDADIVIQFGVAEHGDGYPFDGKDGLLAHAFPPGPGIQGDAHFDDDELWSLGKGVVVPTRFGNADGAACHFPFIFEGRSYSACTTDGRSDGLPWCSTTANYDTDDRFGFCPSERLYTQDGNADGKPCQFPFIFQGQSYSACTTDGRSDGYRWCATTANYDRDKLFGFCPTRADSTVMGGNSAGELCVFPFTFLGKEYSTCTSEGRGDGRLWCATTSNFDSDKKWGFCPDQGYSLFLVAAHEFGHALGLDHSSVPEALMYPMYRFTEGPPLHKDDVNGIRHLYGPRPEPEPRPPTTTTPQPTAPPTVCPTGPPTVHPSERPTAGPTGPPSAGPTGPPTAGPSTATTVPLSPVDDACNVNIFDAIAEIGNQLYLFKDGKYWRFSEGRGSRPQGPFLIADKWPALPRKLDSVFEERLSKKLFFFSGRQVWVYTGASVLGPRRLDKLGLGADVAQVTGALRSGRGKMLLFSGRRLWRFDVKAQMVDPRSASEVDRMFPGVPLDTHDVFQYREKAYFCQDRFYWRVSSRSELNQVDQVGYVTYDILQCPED

[4] = Volume of distribution was determined in dog after a 3 mg/kg of iv dose; assay type: ADME, organism-based, Canis lupus familiaris; set-up: dose 3 mg/kg, route intravenous; details: in vivo, read-out: V
B16 = test: Maximal effective dose against growth of B16 melanoma cells implanted subcutaneously in flank of mice; assay type: functional, Mus musculus
Rattus norvegicus = test: Plasma clearance value was determined in rat after a 3 mg/kg of iv dose; assay type: ADME, organism-based; set-up: dose 3 mg/kg, route intravenous; details: in vivo
[5] = Volume of distribution was determined in rat after a 3 mg/kg of iv dose; assay type: ADME, organism-based; set-up: dose 3 mg/kg, route intravenous; details: in vivo, read-out: V
Mus musculus = test: Increase in life span corresponding to 6.5 day delay to 1 g tumor weight at 100 mg/kg of oral dose in mice; assay type: functional; details: 156 h
[6] = Area under curve was determined in dog after a 3 mg/kg of oral dose; assay type: ADME, organism-based, Canis lupus familiaris; set-up: dose 3 mg/kg, route oral; details: in vivo
[7] = Absolute bioavailability was evaluated in monkey; assay type: ADME, organism-based; details: cercopithecidae, in vivo
Canis familiaris = test: Plasma clearance value was determined in dog after a 3 mg/kg of iv dose; assay type: ADME, organism-based, Canis lupus familiaris; set-up: dose 3 mg/kg, route intravenous; details: in vivo
[8] = Half-life was determined in dog after a3 mg/kg of iv dose; assay type: ADME, organism-based, Canis lupus familiaris; details: in vivo, 3 mg/kg
[9] = Area under curve was determined in monkey after a 3 mg/kg of oral dose; assay type: ADME, organism-based; set-up: dose 3 mg/kg, route oral; details: cercopithecidae, in vivo
[10] = Absolute bioavailability was evaluated in rat; assay type: ADME, organism-based; details: in vivo
[11] = Area under curve was determined in rat after a 3 mg/kg of oral dose; assay type: ADME, organism-based; set-up: dose 3 mg/kg, route oral; details: in vivo
[12] = Absolute bioavailability was evaluated in dog; assay type: ADME, organism-based, Canis lupus familiaris; details: in vivo
[13] = Volume of distribution was determined in monkey after a 3 mg/kg of iv dose; assay type: ADME, organism-based; set-up: dose 3 mg/kg, route intravenous; details: cercopithecidae, in vivo, read-out: V
[14] = Plasma clearance value was determined in monkey after a 3 mg/kg of iv dose; assay type: ADME, organism-based; set-up: dose 3 mg/kg, route intravenous; details: cercopithecidae, in vivo

SMILES | IC50 (Interstitial collagenase) [µM] | IC50 [1] [nM] | also measured
CN1C(=O)N(CC(COc2cccc(-c3ccc(C#N)cc3)c2)N(O)C=O)C(=O)C1(C)C (stereo not drawn) | > 10 | > 10000 | 
CCCOc1ccc(-c2ccc(OCC(CN3C(=O)NC(C)(C)C3=O)N(O)C=O)cc2)cc1 (stereo not drawn) | > 10 | 4 | half-life [2]: 60 min
CN1C(=O)N(CC(COc2ccc(-c3ccc(C#N)cc3)cc2)N(O)C=O)C(=O)C1(C)C (stereo not drawn) |  | 58 | 
C=Cc1ccc(-c2ccc(OCC(CN3C(=O)N(C)C(C)(C)C3=O)N(O)C=O)cc2)cc1 (stereo not drawn) | > 10 | 61 | 
CC1(C)NC(=O)N(CC(COc2ccc(-c3ccc(C(F)(F)F)cc3)cc2)N(O)C=O)C1=O (stereo not drawn) | 0.84 | 20 | 
CC1(C)NC(=O)N(CC(COc2ccc(-c3ccc(C#N)cc3)cc2)N(O)C=O)C1=O (stereo not drawn) | 2.1 | 8 | half-life [2]: 480 min
CC1(C)NC(=O)N(CC(COc2ccc(-c3ccc(S(C)(=O)=O)cc3)cc2)N(O)C=O)C1=O (stereo not drawn) | 4.9 | 48 | half-life [2]: 300 min
CN1C(=O)N(CC(COc2ccc(-c3ccccc3)cc2)N(O)C=O)C(=O)C1(C)C (stereo not drawn) | 1.1 | 89 | 
CCCCc1ccc(-c2ccc(OCC(CN3C(=O)NC(C)(C)C3=O)N(O)C=O)cc2)cc1 (stereo not drawn) | > 10 | 16 | half-life [2]: 60 min
CN1C(=O)N(CC(COc2ccc(-c3cccs3)cc2)N(O)C=O)C(=O)C1(C)C (stereo not drawn) | 3.6 | 130 | 
CCOc1ccc(-c2ccc(OCC(CN3C(=O)NC(C)(C)C3=O)N(O)C=O)cc2)cc1 (stereo not drawn) | 1 | 1 | 
CCCCCOc1ccc(-c2ccc(OCC(CN3C(=O)NC(C)(C)C3=O)N(O)C=O)cc2)cc1 (stereo not drawn) | > 10 | 26 | 
Cc1ccc(-c2ccc(OCC(CN3C(=O)N(C)C(C)(C)C3=O)N(O)C=O)cc2)cc1 (stereo not drawn) | 1.6 | 20 | 
CC1(C)NC(=O)N(CC(COc2ccc(-c3ccc(OC(F)(F)F)cc3)cc2)N(O)C=O)C1=O (stereo not drawn) | 8.6 | 6 | half-life [2]: 1200 min
COc1ccc(-c2ccc(OCC(CN3C(=O)N(C)C(C)(C)C3=O)N(O)C=O)cc2)cc1 (stereo not drawn) |  | 4 | 
CC1(C)NC(=O)N(C[C@H](COc2ccc(-c3ccc(OC(F)(F)F)cc3)cc2)N(O)C=O)C1=O | > 10 | 180 | IC50 (Matrilysin): > 10 µM; IC50 (Stromelysin-1): 3100 nM; IC50 [3]: 1200 nM
CN1C(=O)N(CC(COc2ccc(-c3ccco3)cc2)N(O)C=O)C(=O)C1(C)C (stereo not drawn) | 1.6 | 85 | 
CN1C(=O)N(CC(COc2ccc(-c3cccnc3)cc2)N(O)C=O)C(=O)C1(C)C (stereo not drawn) | > 10 | > 10000 | 
CC1(C)NC(=O)N(C[C@@H](COc2ccc(-c3ccc(OC(F)(F)F)cc3)cc2)N(O)C=O)C1=O | 4.6 | 4 | IC50 (Matrilysin): > 10 µM; IC50 (Stromelysin-1): 42 nM; Vd [4]: 0.9 L/kg; Effective dose (B16): 300 mg/kg; Clp (Rattus norvegicus): 0.12 L/h/kg; Vd [5]: 1.2 L/kg; ILS at 100 mg/kg (Mus musculus): 46%; AUC [6]: 23000 ng·h/mL; bioavailability [7]: 95%; IC50 [3]: 120 nM; Clp (Canis familiaris): 0.11 L/h/kg; half-life [8]: 540 min; T1/2 [2]: 8 h and 21 h; AUC [9]: 43000 ng·h/mL; bioavailability [10]: 93%; AUC [11]: 24000 ng·h/mL; bioavailability [12]: 83%; Vd [13]: 1.2 L/kg; Clp [14]: 0.068 L/h/kg
CN1C(=O)N(CC(COc2ccc(-c3cccc(C#N)c3)cc2)N(O)C=O)C(=O)C1(C)C (stereo not drawn) | > 10 | 1300 | 
COCCOc1ccc(-c2ccc(OCC(CN3C(=O)NC(C)(C)C3=O)N(O)C=O)cc2)cc1 (stereo not drawn) | > 10 | 4 | half-life [2]: 60 min
